From US6893821B2, “Agents that modulate DNA-PK activity and methods of use thereof” (The Regents of the University of California, priority 2000, dated 2005)

What was measured:
[1] = target: T1, Ku antigen (Ku70/Ku80 heterodimer) (Mus musculus, UniProt P23475+P27641); test: EMSA inhibition study: cold ODN vs [32P]-labeled ds-ISS-ODN binding to Ku (affinity column fraction 20)
T1 construct: from tissue; host or cells: mouse liver (BALB/c)
Description: Purification of the ISS binding protein was accomplished by sequential ion exchange, heparin and ISS-ODN affinity chromatography, as follows. Due to the relative small tissue weight per spleen, liver lysate was used after confirming its reactivity to in vivo ISS injection, as described above. Crude liver extracts from 220 mice (BALB/c, Jackson Lab., Bar Harbour, Me.) or 15 New Zealand White rabbits (Simunek, Vista, Calif.) were prepared in homogenization buffer (20 mM HEPES, pH 7.6, 250 mM KCl, 0.1 mM EDTA, 0.5 mM EGTA, 20% glycerol) with 250 mM KCl and protease and phosphatase inhibitors and then centrifuged at 100,000×g for 1.5 hours at 4° C. The supernatant (400 ml) was filtered and loaded onto a Porous 20 QE column (17 ml, Pharmacia). Two μl (10 μg) of each fraction were used in a gel retardation assay to identify the location of proteins containing DNA binding activity using [^32P]-labeled ds-ISS-ODN as a probe. Fractions containing ISS-ODN binding activity were pooled (450 ml), buffered exchanged to low salt (50 mM KCl) and loaded onto a Heparin column (2 ml). The active fractions were subsequently loaded onto a 2 ml ds-ISS-ODN affinity column [CNBr-activated Sepharose 4B (Pharmacia) coupled to 320 μg of ds-ISS-ODNs with the sequence 5′-[…]-3′; SEQ ID NO: 21]. The column was washed with 8 ml of homogenization buffer containing 50 mM KCl and the bound proteins were eluted with a 20 ml linear gradient of 50 mM to 1.55 M KCl. One-ml fractions were collected and 2 μl of each were used to test for DNA binding activity. The active fractions were concentrated, separated by SDS-PAGE and stained with Coomassie Blue. The appearance of two bands with estimated molecular weights of 70 KDa and 80 KDa correlated with the DNA binding activity. Sequence analysis (Harvard Microsequencing Facility) of peptides derived from the two bands identified Ku70 and Ku80, respectively.
Mouse liver extracts were purified through anion (QE), heparin and ISS-based affinity chromatography, as described above. Two μl of each fraction (10 μg) were incubated with [^32 P]-labeled ds-ISS-ODN at 4° C. for 30 minutes. The samples were separated on a 5% acrylamide gel and the protein-DNA complexes were detected by autoradiography. […] The active fractions were separated by sodium dodecyl sulfate-polyacrylamide gel electrophoresis (SDS-PAGE), stained with Coomassie blue and micro-sequenced.
To verify the binding specificity of the Ku protein to ISS-ODN, inhibition studies were performed using cold ss or ds ISS or mutated (M, i.e., control) ODNs. Ten μg of fraction 20 from the affinity column were incubated with [^32P]-labeled ISS-ODN in the presence of unlabeled (0.1, 0.2 and 0.4 μg, respectively) ss-ISS-ODN (lanes 3-5), ds-ISS-ODN (lanes 7-9), ss-M-ODN (lanes 11-13) or ds-M-ODN (lanes 15-17).

[2] = system: bone marrow derived macrophages (BMDM); test: IL-6 and IL-12 levels in BMDM culture supernatants by ELISA; assay type: cell-based, mice
Description: Ku70^−/− and Ku80^−/− mice and their wild-type (wt) control on the 129 genetic background were generated by Dr. G. Li and bred at Memorial Sloan-Kettering Cancer Center (MSKCC), New York, N.Y. BMDM from wt, Ku70^−/− and Ku80^−/− mice (MSKCC) were prepared as was previously published (Martin-Orozco et al. (1999) Int. Immunol. 11:1111), and maintained in DMEM with 10% FBS, antibiotics and 20% L-cell medium and cultured for about 10 days to allow them to mature. BMDM were seeded (2.5×10^5/well in triplicate) on 96-well plates and treated with LPS (10 μg/ml), ISS-ODN (5 μg/ml) or M-ODN (5 μg/ml).
BMDM (2.5×10^5/well) from wt, or Ku70^−/− and Ku80^−/− mice were treated with LPS (1 μg/ml), ISS-ODN (5 μg/ml) or M-ODN (5 μg/ml) for 24 hours. IL-6 (A) or IL-12 (B) levels in the supernatants were determined by ELISA. Results are means±S.D, of 5 separate experiments for wt and Ku70^−/− and 3 separate experiments for Ku80^−/− mice. (C) BMDM were incubated with LPS (10 μg/ml) or ISS-ODN (5 μg/ml) for 6.5 hours. Total RNA was isolated and analyzed for the presence of IL-6, IL-12 and GAPDH messages by a Northern blot assay, as described in Example 1. Results are means±S.D. of 5 separate experiments for wt and Ku70^−/− and 3 separate experiments for Ku80^−/− mice.
DNA-PKcs^−/− and their wt control mice on the 129 genetic background were generated by Dr. G. C. Li and bred at Memorial Sloan-Kettering Cancer Center, New York, N.Y. IKKβ^−/− Tnfr1^−/− mice were generated by Drs. Z-W Li and Karin M. ATM^−/− mice on the C57BL/6 background were generated and bred by Dr. Y. Xu (UCSD) as was previously described (Xu et al.(1996) Genes Dev. 10:2411-2422) while their wild-type (wt) control were purchased from Jackson Laboratories (Bar Harbor, Me.). BMDMs from wt, DNA-PKcs^−/− mice, IKKβ^−/− Tnfr1^−/− and ATM^−/− mice were prepared as was previously published (Martin-Orozco et al. (1999) Intl. Immunol. 11:1111-1118), maintained in DMEM with 10% FBS, antibiotics and 20% L-cell medium and cultured for 7-10 days to allow them to mature. Prior to use BMDM were seeded (2.5×10^5/well in triplicate) in 96-well plates and than treated with LPS (1 μg/ml), ISS-ODN (5 μg/ml) or M-ODN (5 μg/ml), po-ISS-ODN (10 μg/ml) or po-ds-ISS-ODN (10 μg/ml), LPS-free, ultra pure bacterial DNA (E. coli, Sigma) (15 μg/ml) or methylated bacterial DNA or LPS-free, ultra pure calf thymus DNA (Sigma) (15 μg/ml). Methylation of bacterial DNA was performed by SssI methylase (Biolab, Boston, Mass.) (15 μg/ml) following manufacturer's instruction. Where indicated the PI3K inhibitor wortmannin (Wm), at various concentrations, was added to ISS-ODN or LPS stimulated BMDMs. After 24 hours in culture, the supernatants were collected and assayed for IL-6 and IL-12 levels by ELISA kits (PharMingen, San Diego, Calif.).

T1 sequence (P23475 2-608 limits assumed): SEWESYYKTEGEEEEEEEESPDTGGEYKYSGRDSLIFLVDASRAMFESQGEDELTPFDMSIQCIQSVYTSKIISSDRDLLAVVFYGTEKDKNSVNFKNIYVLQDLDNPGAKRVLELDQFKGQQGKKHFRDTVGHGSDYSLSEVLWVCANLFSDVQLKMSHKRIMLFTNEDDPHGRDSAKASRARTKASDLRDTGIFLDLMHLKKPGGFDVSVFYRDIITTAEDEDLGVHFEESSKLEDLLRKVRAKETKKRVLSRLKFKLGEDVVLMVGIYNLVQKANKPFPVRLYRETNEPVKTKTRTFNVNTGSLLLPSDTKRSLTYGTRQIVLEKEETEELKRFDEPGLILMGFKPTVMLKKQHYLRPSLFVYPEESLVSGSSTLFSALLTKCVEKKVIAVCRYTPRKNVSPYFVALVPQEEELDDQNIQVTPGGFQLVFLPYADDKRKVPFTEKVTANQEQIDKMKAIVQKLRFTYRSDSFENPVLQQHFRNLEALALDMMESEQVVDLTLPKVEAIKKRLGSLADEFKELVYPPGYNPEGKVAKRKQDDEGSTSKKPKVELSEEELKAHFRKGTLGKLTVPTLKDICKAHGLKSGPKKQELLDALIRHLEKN
T1 sequence (P27641 whole entry): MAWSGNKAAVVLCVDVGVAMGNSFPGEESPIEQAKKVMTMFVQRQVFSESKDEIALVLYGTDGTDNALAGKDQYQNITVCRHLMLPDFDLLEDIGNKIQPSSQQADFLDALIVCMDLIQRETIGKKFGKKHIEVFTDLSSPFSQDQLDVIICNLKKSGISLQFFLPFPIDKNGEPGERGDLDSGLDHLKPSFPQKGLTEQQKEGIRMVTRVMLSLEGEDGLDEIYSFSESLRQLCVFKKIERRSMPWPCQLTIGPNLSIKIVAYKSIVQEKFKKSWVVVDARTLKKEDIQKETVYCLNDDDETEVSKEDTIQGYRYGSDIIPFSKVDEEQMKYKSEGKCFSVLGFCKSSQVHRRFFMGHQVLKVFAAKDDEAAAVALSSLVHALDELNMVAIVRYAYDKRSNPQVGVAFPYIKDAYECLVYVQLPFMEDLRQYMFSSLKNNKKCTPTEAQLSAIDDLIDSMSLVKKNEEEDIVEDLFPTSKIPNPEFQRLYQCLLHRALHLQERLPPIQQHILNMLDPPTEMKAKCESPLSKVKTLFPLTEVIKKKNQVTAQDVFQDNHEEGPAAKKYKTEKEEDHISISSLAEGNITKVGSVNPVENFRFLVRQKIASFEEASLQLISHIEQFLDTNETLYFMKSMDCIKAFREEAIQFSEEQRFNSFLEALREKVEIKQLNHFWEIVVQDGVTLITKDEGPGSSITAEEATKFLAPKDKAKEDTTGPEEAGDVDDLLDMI

5′-TGACTGTGAACGTTCGAGATGA-3′ [ISS-ODN]
interaction of Ku with ODN [1]: specific interaction | IL-6 and IL-12 induction ([2]; ATM-deficient BMDM): normal induction | IL-6 and IL-12 induction ([2]; DNA-PKcs-deficient BMDM in comparison to wt): Very low levels | IL-6 and IL-12 induction ([2]; IKKβ-/- Tnfr-/- BMDM): significantly reduced | IL-6 and IL-12 secretion ([2]; Ku70-/- and Ku80-/- BMDM as compared to wt, 24 hours): very low levels
